Reference: publication PMC5793121 (Toxins, 2018)
“Also recorded” adds a separate entry of the source. No end group written: not given here.

Assays:
[1] = target: muscle-type Torpedo nicotinic acetylcholine receptor (nAChR); conditions: cited from earlier work
[2] = test system: hprt gene of CHO-k1 cells
[3] = test system: human muscle-type nAChR adult form α1β1εδ; conditions: Xenopus oocytes; cited from earlier work
[4] = test system: human neuronal heteromeric α3-containing nAChRs (α3β2, α3β4, etc.); type: cell-based
[5] = test system: male ICR mice; test: Forelimb grip strength test (muscle relaxant effect) after intramuscular administration; type: in vivo, mouse; conditions: for effect on forelimb muscular strength: vs saline control
Method: 40 male ICR mice were divided equally into four groups: one control and three experimental groups. Animals of the control and experimental groups were treated with normal saline and with Az at doses of 0.03, 0.1 and 0.3 mg/kg, respectively. In addition 6 mice were treated with Az at dose of 0.01 mg/kg. The corresponding solutions were injected into the triceps muscles of the mouse forelimbs at a volume of 0.5 mL/kg per each limb. For all animals their basic forelimb grip strength was recorded before the substance administration with a 1027 grip strength meter (Columbus Instruments, Columbus, OH, USA). Further, their grip strength was measured 5, 10, 15, 20, 30, 60, 90 min after the Az (or normal saline) im administration.
Rocuronium was administered intramuscularly as described for the measurement of acute toxicity (Section 5.4.1). Muscle strength was assessed prior to administration of the substance and then 1, 2, 3, 4, 5 min after administration.

[6] = in vivo; conditions: male, ICR, mouse, in vivo
Method: (§1) Az acute toxicity was estimated for its intravenous (iv) and intramuscular (im) administration to male ICR mice in a stepwise procedure.
(§2) For the iv route of administration, 20 mice were randomly divided in 5 groups of 4 animals each. The animals of each group received a single dose of Az (0.3, 0.4, 0.5, 0.6, or 0.7 mg/kg, respectively) injected into the lateral tail vein at a volume of 1 mL/kg. For the im route of administration, first two experimental groups of 3 animals each were formed. Az at doses of 0.75 and 1.0 mg/kg, respectively, was injected into the quadriceps muscle of the thigh (quadriceps femoris muscle) of two mouse hind limbs at a volume of 0.5 mL/kg to each muscle. Then, five experimental groups of 5 animals each were formed. Az was injected into the quadriceps muscle of the thigh (quadriceps femoris muscle) of the two hind limbs of male ICR mice at doses of 0.8, 0.775, 0.75, 0.725 and 0.7 mg/kg. The injection volume to each limb was 1 mL/kg. Further, neurotoxic manifestations were recorded in animals at 5, 10, 20, 30, 60 and 90 min and 24 h after administration using the functional observation battery, the number of death was counted as well.
(§3) For the iv and im route of administration, the median lethal dose (LD50) was calculated using a probit analysis. For the im route of administration, the maximum tolerated dose was determined.
(§4) Rocuronium was administered intramuscularly at doses of 0.13 mg/kg (n = 1), 0.1 mg/kg (n = 4) and 0.08 mg/kg (n = 4) in the triceps of the forelimbs of male ICR mice (8–9 weeks old). Control animals were injected with saline (n = 4). The volume of administration was 0.5 mL/kg in each limb.

[7] = test system: male ICR mice; test: in vivo
Method: as §1, §2, §3, §4

[8] = test system: Sprague Dawley rats; type: in vivo, rat; design: number of platelets / increase of platelet count from control: unit not given here
Method: A repeated dose 14-day intramuscular toxicity study was conducted on 36 SD male and 36 SD female adult rats. They were divided into 3 groups. The first control group was given normal saline, the second and the third experimental groups received Az at doses of 0.1 mg/kg and 0.5 mg/kg, respectively, daily for 14 days. The substances were injected into the quadriceps muscle of the thigh. Every day the animals were examined and any clinical signs of intoxication, body weight and food intake were recorded. The one half of the animals were euthanized on the 15th day of the study, the second half—after a 2-week cancellation period on the 29th day of the study. All animals were autopsied and their organs were inspected for any pathological signs, weighed and histologically examined. The ratio of organ-to-body weight was calculated for several organs: brain, heart, liver, spleen, thymus, kidneys, lungs, testicles and ovaries. The histological analysis was carried out for a number of organs: kidney, adrenal glands, testis, ovary, spleen, thymus, brain, heart, lung, liver, lymph node (mesenteric and mandibular), stomach, skin and muscle from the site of the administration.
A biochemical analysis of blood serum parameters was performed. A level of aspartate aminotransferase, alanine aminotransferase, glutamate dehydrogenase, alkaline phosphatase, gamma-glutamyl transferase, urea nitrogen, creatinine, total bilirubin, total protein, albumin, globulin, phosphorus, calcium, total cholesterol, triglycerides, albumin/globulin ratio was estimated. The analysis was performed using Randox GB reagent kits for each tested parameter and the automatic biochemical analyzer Sapphire-400 (Tokyo Boeki Ltd., Toyko, Japan).
A hematological analysis of animal blood included the evaluation of red and white blood cell number, a hemoglobin level, hematocrit, red cell distribution width, mean corpuscular volume (MCV), mean corpuscular hemoglobin (MCH), mean corpuscular hemoglobin concentration (MCHC), platelets number, a mean platelet volume, a mean platelet component and a cell number of neutrophils, eosinophils, basophils, lymphocytes, monocytes, large unstained cells, reticulocytes. The analysis was performed using a hematological analyzer Mythic 18 Vet (C2 D[…].A., Montpellier, France).

[9] = test system: 5-HT3 receptors; conditions: concentration up to 10 μM; cited from earlier work
[10] = intramuscular injection to mice (abstract)

## DNWWPKPPHQGPRPPRPRPKP-NH2 [Az, azemiopsin]
[1]
  IC50: 180 ± 30 nM
[2]; Az 2.8 to 2000 μg/mL, 4 h, with or without S9, spontaneous 25.2 ± 1.6
  frequency of mutations in the hprt gene: 23.5–30.2 × 10^−6
[2]; Az up to 2000 μg/mL, CHO-k1 cells
  mutagenic capacity: did not demonstrate any mutagenic capacity
[3]
  IC50: 440 ± 100 nM
[4]
  activity against α3-containing nAChRs (nicotine-evoked calcium responses): no Az activity; also recorded: no effect
[5]; 0.1 mg/kg im
  decrease of grip strength: 37%
[5]; 10 min after im injection, male ICR mice
  average effective dose at the maximum response point: 0.09 mg/kg
[5]; Az 0.01 mg/kg im, n = 6
  effect on forelimb muscular strength: No significant differences; also recorded: not effective
[5]; Az 0.03, 0.1 and 0.3 mg/kg im, n = 10
  effect on forelimb muscular strength: significant decrease
[5]; all doses studied, im, preserved until the 30th minute
  time of maximal muscle relaxant effect after administration: 10 min
[5]; depending on the dose, im
  duration of muscle relaxant effect: 25 to 55 min
[5]; dose 0.3 mg/kg im, from the 5th to the 60th minute
  longest period of action: 55 min
[5]; [10]
  average effective dose (muscle relaxant effect): 0.09 mg/kg
  initial effective dose (muscle relaxant effect): 0.03 mg/kg
[5]; single im injection in forelimb muscles, male ICR mice
  initial effective dose (muscle relaxant effect): 0.03 mg/kg
[6]; im
  LD50 at 24 h: 0.732 ± 0.13 mg/kg
  MTD at 24 h: 0.7 mg/kg
[6]; iv
  LD50 at 24 h: 0.51 mg/kg
[7]; im 0.725 mg/kg
  time of death after administration: 19.7 ± 5.9 min
[7]; im 0.75 mg/kg
  time of death after administration: 28.8 ± 16.0 min
[7]; im 0.775 mg/kg
  time of death after administration: 15.8 ± 4.3 min
[7]; im 0.8 mg/kg
  time of death after administration: 12.2 ± 1.8 min
[7]; im dose of 0.3 mg/kg and lower (grip strength tests)
  toxicity signs: No toxicity signs
[7]; im, large doses
  time of appearance of visible toxic signs after administration: 5 to 7 min
  time of complete recovery from the toxic effect after administration: 24 h
[7]; intravenous administration, male ICR mice, probit analysis
  LD50: 0.51 ± 0.06 mg/kg
[8]; 0.1 mg/kg im 14 days
  changes in the hemogram relative to control: did not lead to any changes
[8]; 0.1 and 0.5 mg/kg im 14 days
  increase in mean body weight and food intake vs control: did not differ significantly
[8]; 0.1 and 0.5 mg/kg im 14 days, rats
  histological analysis of organs and tissues: No pathological changes
[8]; female rats, 0.1 mg/kg
  lowering of cholesterol level from control: 0.73 mmol/L
[8]; female rats, 0.1 mg/kg, end of 28-day experiment, n = 6, control 3.25 ± 0.09
  level of calcium in blood serum: 3090 ± 60 µM
[8]; female rats, 0.1 mg/kg, end of 28-day experiment, n = 6, control 3.55 ± 0.39
  level of cholesterol in blood serum: 2820 ± 360 µM
[8]; male rats receiving Az
  decrease of triglyceride level from control: 0.28 mmol/L
  difference of relative heart mass from control: 0.076%
  increase of platelet count from control: 81
[8]; male rats, 0.5 mg/kg im 14 days, n = 6, control 729 ± 22
  number of platelets: 810 ± 39
[8]; male rats, 0.5 mg/kg, end of 28-day experiment, n = 6, control 1.25
  mean level of triglycerides in blood serum: 970 µM
[8]; male rats, 0.5 mg/kg, two weeks after administration, n = 6, control 0.428 ± 0.086
  mean relative heart weight: 0.352 ± 0.033%
[9]
  activity against 5-HT3 receptors: no activity
